Measurements: patent US20250034139A1, “AMINE COMPOUNDS HAVING ANTI-INFLAMMATORY, ANTIFUNGAL, ANTIPARASITIC, AND ANTICANCER ACTIVITY” (PHARMA CINQ, LLC, priority 2013, published 2025)
Where two headings read alike, the source gives them in different places.

What was measured:
[1] = tested on: Hep3B hepatocellular carcinoma cell line; settings: for Tumor Weight (g) Mean ± SEM: Hep3B in liver of nude mice, day 35, oral daily, sorafenib 30 mg/kg/day alone, 20 mg/kg/day in combination, AC 180, AK and AB 360 μmol/kg/day; for Body Weight (g) Mean ± SEM Initial: in vivo; for Complete Regressions: number of mice with no viable tumor at necropsy, doses as Table 35
Description: Hepatocellular carcinoma (HCC) is one of the most common and lethal cancers worldwide, generally developing as a consequence of chronic infection with hepatitis B or C viruses. […] The Hep3B hepatocellular carcinoma cell line is human in origin, contains genetic traces of hepatitis B virus, and can be injected into the livers of athymic immunocompromised mice as a model of primary HCC. […] The test compounds were all administered orally.
The test compounds of the invention were suspended in 1% hydroxypropylmethylcellulose (HPMC) using a sonicator equipped with a microtip to minimize particle size and maximize uniformity of the suspension. Sorafenib was dissolved in a 1:1 mixture of Cremophor EL and ethanol by heating to 60° C. for 1 minute and then sonicating for 10 minutes to fully suspend. Female nude mice (Hsd:athymic nude-Foxn1^nu) weighing approximately 25 g were anesthetized with ketamine/xylazine, laid on their backs, and a 1-cm transverse incision made through the skin and peritoneum of the left upper abdomen. The mediant lobe of the liver was exposed by applying gentle pressure on the abdomen. 1.5-2×10^6 Hep3B cells in a 20 μL volume of matrigel:EMEM serum free (1:1) were slowly implanted by subserosal injection into the liver using a 27-gauge needle on a Hamilton syringe. The liver was allowed to slip back into place, and the peritoneum was closed with sutures and wound clips.
Mice were divided into 8 groups of mice each following injection of cells; the vehicle/vehicle group comprised 12 mice and the other groups comprised 8 or 9. Mice began receiving oral test drug treatments 48 hr post cell injection.
The test compounds, sorafenib, and vehicles were administered by oral gavage. Sorafenib or its cremophor-containing vehicle were given in the morning and compounds of the invention or their HPMC vehicle was administered in the afternoon each day; all animals received two gavage treatments of drugs or appropriate vehicles daily.

[2] = tested on: C. neoformans (serotype A) phagocytosed by THP-1-derived macrophages; test: Example M: phagocytosed Cryptococcus neoformans antifungal screen in THP-1-derived macrophages; assay type: cell-based; settings: for inhibition of fungal growth after phagocytosis and lysis, in words: 0.5, 1 or 2 μM; for IC50: after macrophage phagocytosis and lysis
Experimental: Two concentrations of macrophages (1×10^5 and 2×10^5/well) and a high concentration of C. neoformans (4×10^6/well) (MOI values of 40 and 20 respectively) were tested in this experiment.
THP-1 cells were adjusted to 5×10^5/ml or 1×10^6/ml in cRPMI+PMA
200 μl was transferred to a flat-bottomed 96-well dish (1×10^5 and 2×10^5/well) (48 hrs at 37 C) Media was removed and fresh cRPMI+PMA added (further 24 hrs at 37 C)
C. neoformans cells in DPBS were opsonized with human serum (60 mins at 30 C)
The opsonized yeast was washed (DPBS) and resuspended at 1×10^7/ml or 2×10^7/ml in cRPMI. 100 μl added to macrophage plate (1×10^6 and 2×10^6/well) (4 hrs at 37 C) washed ×4 with DPBS 100 μl of cRPMI was added to each well (18 hrs at 37 C) Compound AC was added to some wells. Media was removed, no wash, 25 μl 0.05% Triton X-100 added to lyse cells (3 mins RT rocking) 125 μl YPD broth was added and the plate incubated (24 hrs at 30 C then 24 hrs at 37 C) C. neoformans growth was determined on a Spectrophotometer (600 nm) after 24 and 48 hours
THP-1 cells (p15) grown in cRPMI [RPMI (Lonza 12-115F) plus 10% ΔFBS (Lonza DE14-701F)] were counted on a hemacytometer. Cells were spun at 1,800 rpm, RT for 5 mins, supernatant aspirated, pellet disturbed then adjusted to 5.0×10^5/ml and 1.0×10^6/ml in cRPMI supplemented with 0.2 μg/ml phorbol 12-myristate 13-acetate (PMA) (1 mg/ml in DMSO Sigma P8139). 200 μl aliquots of each cell concentration were transferred to […] (half a plate) of a flat-bottomed 96-well dish (1×10^5 and 2×10^5/well) and placed in a 37 C incubator for 48 hours, media was then removed and 200 μl of fresh cRPMI+PMA added. The plate was incubated for an additional 24 hours at 37 C then processed for yeast uptake.
In parallel to macrophage preparation, C. neoformans cells were grown from a single colony in 20 ml YPD broth at 30 C overnight. Absorbance of 1:10 dilution of the overnight (ON) culture gave 0.89 OD at 600 nm. Estimated concentration of this stock was 4×10^8 cells/ml (2×10^8 cells/ml gave an OD 600 nm of 0.426 in an earlier study Cryptococcus macrophage development plate 3 ML113012). The cells were washed with DPBS once and resuspended in 2 ml DPBS. 230 μl of this stock (˜60×10^7 cells) was brought up to 500 μl with DPBS in an Eppendorf tube. For opsonization, 500 μl of human serum (SIGMA S7023) was added and the tube incubated at 30 C for 60 mins with orbital shaking. […] A 1:200 dilution of cells was counted (4.25×10^6/ml), equivalent to 8.5×10^8/ml for the 1× stock. 470 μl of the 1× stock was brought up to 10 ml with cRPMI for a final concentration of 4×10^7/ml.
Media was aspirated from the prepared macrophage plate and 100 μl of the opsonized fungal cell suspension added to the wells. Media without yeast was added to triplicate wells for each macrophage concentration to provide background readings. Three empty wells (no macrophages) were seeded with fungus to serve as the wash control. The plates were then incubated at 37 C for 4 hours then washed 4 times with DPBS (plates were shakes briefly after addition of DPBS to increase wash efficiency). 144 μl of cRPMI was added to each well and 6 μl of 12.5 μM, 25 μM and 50 μM stocks of compounds AM, BM, AH, and AC added in triplicate for final concentrations of 0.5 μM, 1 μM or 2 μM. The plate was incubated at 37 C, 5% CO2 for 18 hours. Media was removed, 25 μl of 0.05% Triton X-100 (SIGMA T-9284) in DPBS was added to each well and the plate rocked at RT for 3 min, to lyse the cells. 125 μl YPD broth (KD Medical YLF-3260) was then added to each well and the plate placed in a 30 C incubator. C. neoformans cell growth was determined by measuring absorbance at 600 nm on a Spectrophotometer (Spectra Max Plus using program SoftMax Pro) after […].

[3] = Cryptococcus neoformans, read-out: IC50 value (μM) for inhibition of fungal growth, 1 × 10^5 macrophages
[4] = Cryptococcus neoformans, read-out: IC50 value (μM) for inhibition of fungal growth, 2 × 10^5 macrophages

Compound: CCCCCCOc1cccc(CNc2ncnc3ccccc23)c1 [AK, N-[3-(Hexyloxy)benzyl]quinazolin-4-amine]
- Tumor Weight (g) Mean ± SEM [1]: 1.56 ± 0.39^ g
- Body Weight (g) Mean ± SEM Initial [1]: 25.9 ± 0.7 g
- Complete Regressions ([1]; day 35): 2
- reduction of tumor size versus vehicle ([1]; single agents, oral, day 35, sorafenib 30 mg/kg/day): numerically but not statistically significant reduction in tumor size versus vehicle

Compound: CCCCOCCCCCCCCCCNc1ccnc2ccccc12 [AM, N-(10-Butoxydecyl)quinolin-4-amine]
- inhibition of fungal growth after phagocytosis and lysis, in words [2]: clear dose dependent inhibition of fungal growth after phagocytosis and lysis
- IC50 [2, 3]: 1.13 µM
- IC50 [2, 4]: 0.85 µM

Compound: c1ccc(Oc2cccc(CNc3ncnc4ccccc34)c2)cc1 [BM, N-(3-Phenoxybenzyl)quinazolin-4-amine]
- inhibition of fungal growth after phagocytosis and lysis, in words [2]: clear dose dependent inhibition of fungal growth after phagocytosis and lysis
- IC50 [2, 3]: 1.8 µM
- IC50 [2, 4]: 1.31 µM

Compound: CCCCCCOc1cccc(CNc2ccnc3ccccc23)c1 [Compound AC, N-[3-(Hexyloxy)benzyl]quinolin-4-amine]
- inhibition of fungal growth after phagocytosis and lysis, in words [2]: clear dose dependent inhibition of fungal growth after phagocytosis and lysis
- IC50 [2, 3]: 1.29 µM
- IC50 [2, 4]: 1.35 µM
- Tumor Weight (g) Mean ± SEM [1]: 0.49 ± 0.17 g
- Body Weight (g) Mean ± SEM Initial [1]: 25.4 ± 0.5 g
- Complete Regressions ([1]; day 35): 2

Compound: CCCCCCCCCCNc1ncnc2ccccc12 [Compound AH, N-(Decyl)quinazolin-4-amine]
- inhibition of fungal growth after phagocytosis and lysis, in words [2]: clear dose dependent inhibition of fungal growth after phagocytosis and lysis
- inhibition at 2 µM ([2]; Cryptococcus neoformans, Macrophage, at 2 μM, after phagocytosis, read-out: inhibition of the fungal growth): ~100%
- IC50 [2, 3]: 0.29 µM
- IC50 [2, 4]: 0.25 µM
